Reference: US20240092784A1, “CONDENSED HETEROCYCLIC COMPOUND” (NISSAN CHEMICAL CORPORATION, priority 2020, published 2024)
Where a name gives a salt, the structure may show the parent alone. Read-outs that look alike come from different tables or passages of the source.

Target: human SPR (Homo sapiens (Human), UniProt P35270)
Assay: Evaluation Example 2: Measurement of human SPR inhibitory activity (seven concentrations, sepiapterin absorbance at 420 nm)
Type: biochemical
Outline: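 His-tagged full-length human SPR (1-261) was expressed in E. coli and the tag removed. Enzyme at 150 ng/mL in 100 mM Tris-HCl pH 7.5/0.01% BSA was mixed with compound (0.14–100 nM, seven points), 120 μM sepiapterin and 160 μM NADPH, both as added-solution concentrations. After 240 min at room temperature, remaining sepiapterin was read at 420 nm to give percent inhibition.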

[1] = Evaluation Example 2, seven concentrations 0.14 nM to 100 nM, 240 minutes at room temperature, read-out: IC50

human SPR, sequence (P35270 whole entry): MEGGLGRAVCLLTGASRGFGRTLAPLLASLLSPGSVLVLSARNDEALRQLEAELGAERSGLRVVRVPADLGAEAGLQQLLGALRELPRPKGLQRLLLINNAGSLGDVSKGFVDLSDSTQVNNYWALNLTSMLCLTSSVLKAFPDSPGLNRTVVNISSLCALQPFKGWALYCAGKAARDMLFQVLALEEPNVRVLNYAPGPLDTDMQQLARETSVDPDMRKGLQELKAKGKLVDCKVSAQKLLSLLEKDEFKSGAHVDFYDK

Compound | IC50 (sepiapterin absorbance, Table 41, read-out: concentration at 50% inhibition of human SPR (IC50)) [pM] | IC50 [1] [pM]
Cc1nn2c(O)c(C(=O)NC3CC3)c(=O)n(CC(C)C)c2c1/C=C/C(=O)N1C[C@H]2C[C@@H]1CO2 [Synthesis Example 754, 3-((E)-3-((1R,4R)-2-Oxa-5-azabicyclo[2.2.1]heptan-5-yl)-3-oxoprop-1-en-1-yl)-N-cyclopropyl-7-hydroxy-4-isobutyl-2-methyl-5-oxo-4,5-dihydropyrazolo[1,5-a]pyrimidine-6-carboxamide] | 830 | –
CC(C)(C)Cn1c(=O)c(C(=O)NC2CC2)c(O)n2nc(N)c(Cl)c12 [compound 447, 2-Amino-3-chloro-N-cyclopropyl-7-hydroxy-4-neopentyl-5-oxo-4,5-dihydropyrazolo[1,5-a]pyrimidine-6-carboxamide hydrochloride] | – | 2160
CC(C)(C)Cn1c(=O)c(C(=O)NC2CC2)c(O)n2nc(-c3cccnc3N)c(Br)c12 [compound 448, 2-(2-Aminopyridin-3-yl)-3-bromo-N-cyclopropyl-7-hydroxy-4-neopentyl-5-oxo-4,5-dihydropyrazolo[1,5-a]pyrimidine-6-carboxamide] | – | 8220
CC(C)Cn1c(=O)c(C(=O)NC2CC2)c(O)n2nc(-c3cccnc3N)c(/C=C/C(=O)N3CCOCC3)c12 [compound 449, (E)-2-(2-Aminopyridin-3-yl)-N-cyclopropyl-7-hydroxy-4-isobutyl-3-(3-morpholino-3-oxoprop-1-en-1-yl)-5-oxo-4,5-dihydropyrazolo[1,5-a]pyrimidine-6-carboxamide] | – | 840
CC(C)Cn1c(=O)c(C(=O)NC2CC2)c(O)n2nc(C(N)=O)c(/C=C/C(=O)N3CCOCC3)c12 [compound 450, (E)-N6-Cyclopropyl-7-hydroxy-4-isobutyl-3-(3-morpholino-3-oxoprop-1-en-1-yl)-5-oxo-4,5-dihydropyrazolo[1,5-a]pyrimidine-2,6-dicarboxamide] | – | 600
CC(C)Cn1c(=O)c(C(=O)NC2CC2)c(O)n2nc(C(N)=O)c(/C=C/C3CCOCC3)c12 [compound 451, (E)-N6-Cyclopropyl-7-hydroxy-4-isobutyl-5-oxo-3-(2-(tetrahydro-2H-pyran-4-yl)vinyl)-4,5-dihydropyrazolo[1,5-a]pyrimidine-2,6-dicarboxamide] | – | 690
CC(C)Cn1c(=O)c(C(=O)NC2CC2)c(O)n2ncc(/C=C/C(=O)N3CCCC3)c12 [compound 452, (E)-N-Cyclopropyl-7-hydroxy-4-isobutyl-5-oxo-3-(3-oxo-3-(pyrrolidin-1-yl)prop-1-en-1-yl)-4,5-dihydropyrazolo[1,5-a]pyrimidine-6-carboxamide] | – | 830
CC(C)Cn1c(=O)c(C(=O)NC2CC2)c(O)n2ncc(/C=C/C(=O)N3CCC(F)(F)C3)c12 [compound 453, (E)-N-Cyclopropyl-3-(3-(3,3-difluoropyrrolidin-1-yl)-3-oxoprop-1-en-1-yl)-7-hydroxy-4-isobutyl-5-oxo-4,5-dihydropyrazolo[1,5-a]pyrimidine-6-carboxamide] | – | 820
CC(C)Cn1c(=O)c(C(=O)NC2CC2)c(O)n2ncc(/C=C/C(=O)N3CC[C@H](F)C3)c12 [compound 454, (S,E)-N-Cyclopropyl-3-(3-(3-fluoropyrrolidin-1-yl)-3-oxoprop-1-en-1-yl)-7-hydroxy-4-isobutyl-5-oxo-4,5-dihydropyrazolo[1,5-a]pyrimidine-6-carboxamide] | – | 750
CC(C)Cn1c(=O)c(C(=O)NC2CC2)c(O)n2ncc(/C=C/C(=O)N3CCOC[C@@H]3C)c12 [compound 455, (S,E)-N-Cyclopropyl-7-hydroxy-4-isobutyl-3-(3-(3-methylmorpholino)-3-oxoprop-1-en-1-yl)-5-oxo-4,5-dihydropyrazolo[1,5-a]pyrimidine-6-carboxamide] | – | 720
CC(C)Cn1c(=O)c(C(=O)NC2CC2)c(O)n2ncc(/C=C/C(=O)N3CC4CCC(C3)O4)c12 [compound 456, (E)-3-(3-(8-Oxa-3-azabicyclo[3.2.1]octan-3-yl)-3-oxoprop-1-en-1-yl)-N-cyclopropyl-7-hydroxy-4-isobutyl-5-oxo-4,5-dihydropyrazolo[1,5-a]pyrimidine-6-carboxamide] | – | 580
